The source of these data is patent publication US8435538B2, “Anti-atheroma vaccine” (Thrombosis Research Institute, priority 2008, dated 2013).

One assay has as its system ApoB1 peptide. Description: Peptide-specific antibody response in sera by ELISA after immunization with KLH conjugates, antigen ApoB1 peptide. The assay is classed as in vivo, mice. An excerpt:
(§1) Apob^tm2SgyLdlr^tm1Her/J mice were immunized with combinations of ApoB and hHSP epitopes conjugated to keyhole limpet hemocyanin (KLH) as a carrier protein. The peptides were given either in combination, as a bi-specific immunogen, or in a single form, together with complete/incomplete Freund's adjuvant. Mice were fed with high-fat diet for 7 weeks then sacrificed. Peptide-specific antibody responses were detected in the sera by ELISA.

The test system of another assay is hHSP60 peptide. Nature of the assay: Peptide-specific antibody response in sera by ELISA after immunization with KLH conjugates, antigen hHSP60 peptide. Format: in vivo, mice.
From the text: as §1

Assay [1] concerns Apob^tm2Sgy Ldlr^tm1Her/J KO-mice. Description: RIMMS immunization, serum IgG titre by ELISA, KO-mouse model. The settings on record: titre = highest serum dilution giving OD (450 nm) ≧1. The assay is classed as in vivo. The procedure: The ability of the recombinant immunogens to generate an immune response in BALB/C mice models, C57/BL6 mice models and Apob^tm2Sgy Ldlr^tm1Her/J KO-mice models. Mice were immunized using a repetitive, multiple site immunization strategy (RIMMS). Groups of 10 of 6-8-week-old BALB/c mice were inoculated with 4 μg of recombinant immunogen mixed with Freund's adjuvant 5 times respectively. The immunization was carried out subcutaneously into 8 sites on days 0, 2, 5, 7 and 9. On day 12 and 21 blood sample will be collected to test the antibody response. […]
Serum samples of immunized and naïve mice were tested for IgG antibodies using OD values at a dilution of 1:100 (or 200) on ELISA plates coated with antigens. Cut-off value for positivity was calculated as mean OD of naïve mouse sera+3×SD. Serum samples showing higher OD on antigen than on control antigen are considered positive, the other is determined by the highest dilution of serum giving an OD reading (at 450 nm)≧1. In this regard, titre can be assessed as non-immunoreactivity (<200), low immunoreactivity (200≦titre<800), good immunoreactivity (800≦titre<3200) and very good immunoreactivity ((titre 3200)

In assay [2] the test system is Apob^tm2SgyLdlr^tm1Her/J mice. Description: Histological analysis of atherosclerotic lesions in the aortic sinus of immunized mice. The assay is classed as in vivo.
From the text: LDL receptor-deficient mice expressing ApoB-100 were immunized with a combination of two peptides derived from ApoB1 ([…], SEQ ID NO:25) and hHSP60 (AELKKQSKPVT, SEQ ID NO:26).
as §1
The lesions were 14.66% smaller following immunization with ApoB1 peptide alone (FIG. 5B), and 21.15% smaller after immunization with hHSP60 peptide alone (FIG. 5C) than in control mice.

Assay [3] deals with macrophages (CD68+ cells). Description: Infiltration of macrophages into atherosclerotic lesions, anti-CD68 staining. Format: in vivo. The settings on record: compared with mice immunized with either HSP60 or apoB1 alone; FIG. 6. An excerpt:
Infiltration of macrophages into atherosclerotic lesions in the Apob^tm2SgyLdlr^tm1Her/J mice were quantified by staining with anti-CD68. Sections of the tissue sample (5 μm thick) were stained with hematoxylin-eosin (H.E.) and examined under a light microscope. Macrophage levels were compared in a sample obtained from mice immunized with adjuvant only (control), mice immunized with ApoB only, mice immunized with hHSP60 only and mice immunized with the bi-specific ApoB1+hHSP60 immunogen.

Where “and” joins values, the source holds several entries; their conditions need not be identical. Equal values may be shown once. Ends that are not written are not given here.

For “ApoB1 + hHSP60-KLH: combination of ApoB1 and hHSP60 peptides conjugated to KLH, bi-specific immunogen (chain 1 IEIGLEGKGFEPTLEALFGK; chain 2 AELKKQSKPVT; also: peptides conjugated to KLH; listed as Homo sapiens)”, in the assay with ApoB1 peptide (Week 8, group mean), the “OD at 1:100 serum dilution, ELISA antigen ApoB1 peptide, Mean” value came out at 1.333. In addition, the “OD at 1:100 serum dilution, ELISA antigen ApoB1 peptide” value in the assay with ApoB1 peptide (Week 8, individual mouse) is 1.227 and 1.546 and 1.449 and 1.437 and 1.142 and 1.229 and 1.303. For the same substance, the “OD at 1:100 serum dilution, ELISA antigen hHSP60 peptide, Mean” value in the assay with hHSP60 peptide (Week 8, group mean) came out at 1.366. The “OD at 1:100 serum dilution, ELISA antigen hHSP60 peptide” value in the assay with hHSP60 peptide (Week 8, individual mouse) was 1.368 and 1.405 and 1.556 and 1.282 and 1.215 and 1.338 and 1.396. The “Immune response on KO- mouse model” value in assay [1] was “Very Good (very good immunoreactivity ((titre 3200))”. For the same substance, the “protection from progression of atherosclerotic lesion” value in assay [2] (LDL receptor-deficient mice expressing ApoB-100) is given as “synergistic protection”. Besides, in assay [2] (vs adjuvant control, high-fat diet for 7 weeks), the “atherosclerotic lesions in the aortic sinus smaller in size than in control mice” value is listed as 41.34%. Further, in assay [3], the “number of macrophages (CD68+ cells) found within lesions of atherosclerosis” value is listed as “fewer”.
